Legend:
Format in all cases: in vivo, SD/IGS rats
[1] = tested on: rats with constipation induced by low-fiber diet; assay: Test 1: ameliorating effect on constipation models fed on low-fiber diet; settings: low-fiber diet constipation model rats, oral in 0.5% MC, dosed twice (0 and 8 h)
Experimental: Test 1: Ameliorating Effect on Constipation Models Fed on Low-Fiber Diet
SD/IGS rats (6-wk old; CHARLES RIVER LABORATORIES JAPAN, INC.) in groups, each consisting of two heads per cage, were fed on a diet with a decreased dietary fiber content of 5% for a week in order to induce constipation. The normal group was fed on a standard diet with 15% dietary fiber (MF diet; ORIENTAL YEAST CO., LTD.) On the day before the test, each rat was measured for body weight and thereafter transferred into an individual cage. Grouping was performed on the basis of the body weights measured on the day before the test. The experimental groups of rats with induced constipation were orally administered compound (I) in a volume of 5 mL/kg body weight as dissolved in 0.5% (w/v) methylcellulose (MC), whereas the control vehicle group was orally administered 0.5% MC only. […] Immediately after the first administration, a stool recovery tray was placed under each cage and starting 2 hours after the administration, stools were recovered every two hours until 24 hours after the administration; the appearance of the recovered stools was observed and their weight was measured. To determine their moisture content, the stools were measured for their wet weight, dried for at least 8 hours at 100° C., measured for dry weight, and its proportion (%) to the wet weight was calculated. […]

[2] = tested on: rats with loperamide-induced constipation; assay: Test 2: ameliorating effect on loperamide-induced constipation; settings: loperamide (5 mg/kg p.o.) constipation model rats, oral in 0.5% MC
Experimental: Test 2: Ameriolating Effect on Loperamide-Induced Constipation
The effects on constipation as induced by loperamide which suppresses the propulsion of the digestive tract's contents and the secretion of intestinal juice were investigated.
SD/IGS rats (6-wk old; CHARLES RIVER LABORATORIES JAPAN, INC.) in groups, each consisting of one head per cage, were kept in a day-and-night reversal room for 11 days. The rats were fasted for about 16 hours and orally administered 0.5% MC suspended loperamide at a dose of 5 mg/5 mL/kg body weight to prepare constipation models. The normal group was orally administered on 0.5% MC only. […] Immediately after the administration of compound (I), 5 g of a standard diet (MF diet; ORIENTAL YEAST CO., LTD.) was applied and thereafter, a stool recovery tray was placed under each cage and starting 2 hours after the administration, stools were recovered every two hours until after 12 hours; the appearance of the recovered stools was observed and their weight was measured. To determine their moisture content, the stools were measured for their wet weight, dried for at least 8 hours at 100° C., measured for dry weight, and its proportion (%) to the wet weight was calculated. […]

[3] = Test 3: percentage of compound (I) remaining unaltered in rat's digestive tract; settings: 1 mg/kg oral; for Remaining unaltered, cecum/large intestine (including the contents), relative to dose / Remaining unaltered, small intestine's contents, relative to dose / Remaining unaltered, small intestine, relative to dose / Remaining unaltered, total, relative to dose: average of 4 cases ± S.D.
Experimental: Test 3: Percentage of Compound (I) Remaining Unaltered in Rat's Digestive Tract
Seven-week old SD/IGS rats (CHARLES RIVER LABORATORIES JAPAN, INC.; male; fasted) were orally administered compound (I) (1 mg/kg) formulated with an aqueous solution of 0.5% CMC-Na (carboxymethylcellulose sodium salt). One, four and seven hours after the drug administration, the rats were euthanized under anesthetization with ether and their small intestine, cecum, and large intestine were removed. The contents of the small intestine were recovered by infusing the small intestine with 20 mL of physiological saline. After washing the tissue's surface with physiological saline, the tissues and the recovered contents were measured for their weight and homogenized under cooling with ice in the presence of added 4 volumes of purified water. The homogenate was deproteinated in the presence of an added acetonitrile/methanol solution containing an internal standard and, thereafter, the supernatant was analyzed by LC-MS/MS (Applied Biosystems: API3000). Drug-derived ions were detected by selected reaction monitoring based on electrospray ionization in a positive ion mode. From peak areas in the resulting extracted ion chromatogram, drug concentrations in the homogenate were calculated by the internal standard method.
The internal standard here used was compound 11 disclosed in WO2007/136116.

COc1cc(C(C)C)c(Cc2ccc(/C=C/C(C)(C)C(=O)NC(C)(C)C(=O)NCCN(C)C)cc2)cc1[C@@H]1O[C@H](CO)[C@@H](O)[C@H](O)[C@H]1O [Compound (I), (1S)-1,5-anhydro-1-[5-(4-{(1E)-4-[(1-{[2-(dimethylamino)ethyl]amino}-2-methyl-1-oxopropan-2-yl)amino]-3,3-dimethyl-4-oxobut-1-en-1-yl}benzyl)-2-methoxy-4-(propan-2-yl)phenyl]-D-glucitol]
wet weight of stools ([1]; stools recovered until 24 hours (FIG. 1)): increased
moisture content of stools ([1]; stools recovered until 24 hours (FIG. 2)): increased
wet weight of stools ([2]; stools recovered until 12 hours (FIG. 3)): increased
moisture content of stools ([2]; stools recovered until 12 hours (FIG. 4)): increased
dose remaining unaltered in the small intestine and its contents ([3]; 1 hour after drug administration): about 75%
Remaining unaltered, cecum/large intestine (including the contents), relative to dose ([3]; 1 hr after dosing): 0.2 ± 0.3 % of dose
Remaining unaltered, small intestine's contents, relative to dose ([3]; 1 hr after dosing): 70.3 ± 6.7 % of dose
Remaining unaltered, small intestine, relative to dose ([3]; 1 hr after dosing): 4.9 ± 0.6 % of dose
Remaining unaltered, total, relative to dose ([3]; 1 hr after dosing): 75.4 ± 6.3 % of dose
dose remaining unaltered in the small intestine and its contents ([3]; 4 hours after drug administration): about 75%
Remaining unaltered, cecum/large intestine (including the contents), relative to dose ([3]; 4 hr after dosing): 33.1 ± 44.5 % of dose
Remaining unaltered, small intestine's contents, relative to dose ([3]; 4 hr after dosing): 69.7 ± 44.9 % of dose
Remaining unaltered, small intestine, relative to dose ([3]; 4 hr after dosing): 6.4 ± 5.3 % of dose
Remaining unaltered, total, relative to dose ([3]; 4 hr after dosing): 109.2 ± 10.7 % of dose
Remaining unaltered, cecum/large intestine (including the contents), relative to dose ([3]; 7 hr after dosing): 84.2 ± 8.8 % of dose
Remaining unaltered, small intestine's contents, relative to dose ([3]; 7 hr after dosing): 1.6 ± 1.2 % of dose
Remaining unaltered, small intestine, relative to dose ([3]; 7 hr after dosing): 0.7 ± 0.3 % of dose
Remaining unaltered, total, relative to dose ([3]; 7 hr after dosing): 86.5 ± 9.2 % of dose

Reference: patent publication US10022389B2, “Prophylactic or therapeutic drug for constipation” (TAISHO PHARMACEUTICAL CO., LTD., priority 2013, dated 2018)
